Earlier results, collected in US20040248850A1, “Compounds for the treatment of HIV infection” (Kemia, Inc., priority 2003, published 2004).

Tested on: Human Immunodeficiency Virus Type 1
Details: in cell culture

Substance: enfuvirtide
- EC50: 1 ng/mL
